≈ marks a conversion by molar mass, not a printed value.
Key:
[1] = test system: Acinetobacter baumannii LAC-4; assay: Fitness outcome under ciprofloxacin (growth curve assay); format: cell-based; settings: A. baumannii LAC-4; 1 μg/mL ciprofloxacin
Excerpt: (§1) S. pneumoniae strain TIGR4 (T4; NC_003028.3) is a serotype 4 strain originally isolated from a patient^3,4, Taiwan-19F (19F; NC_012469.1) is a multi-drug resistant strain^5,6 and D39 (NC_008533) is a commonly used serotype 2 strain originally isolated from a patient about 90 years ago^7. Strain PG1 and PG19 were isolated from adults with pneumococcal bacteremia infection and included in the Pneumococcal Bacteremia Collection Nijmegen (PBCN)^8. All S. pneumoniae gene numbers refer to the T4 genome. Correspondence between homologous genes among S. pneumoniae strains and gene function annotations are described herewith. Escherichia coli strain AR538, Klebsiella pneumoniae strain AR497 and Salmonella enterica subsp Typhimurium strain AR635 were clinical isolates obtained from the Center of Disease Control (CDC). Staphylococcus aureus strain MN6 was kindly provided by George Sakoulas (Center of Immunity, Infection & Inflammation, UCSD School of Medicine). Unless otherwise specified, S. pneumoniae strains were cultivated in Todd Hewitt medium with 5% yeast extract (THY) with 5 μL/mL oxyrase (Oxyrase, Inc) or on sheep's blood agar plates (Northeastern Laboratories) at 37° C. with 5% CO2. A. baumannii, E. coll. […] Single strain growth assays were performed at least three times using 96-well plates by taking OD600 measurements on a Tecan Infinite 200 PRO plate reader.

[2] = test system: Acinetobacter baumannii 17978; assay: as above; format: cell-based; settings: A. baumannii 17978; 1 μg/mL ciprofloxacin
Excerpt: as §1

A. baumannii ATCC 17978 [3] = assay: Single time-point entropy (RNA-Seq) with linear regression MIC prediction; format: cell-based; settings: Acinetobacter baumannii, ATCC17978, 2 h; read-out: predicted MIC (linear regression model on entropy)
A. baumannii ATCC 17978 [4] = assay: Ciprofloxacin MIC determination by growth curves; format: cell-based; settings: Acinetobacter baumannii, ATCC17978, read-out: measured MIC
Description: (§2) Each concentration was tested in triplicate. Growth was monitored on a Tecan Infinite 200 PRO plate reader at 37° C. for 16 hours. MIC is determined as the lowest concentration that abolishes bacterial growth (FIGS. 6A-6H).

A. baumannii LAC-4 = assay: Ciprofloxacin MIC determination by growth curves; format: cell-based; settings: Acinetobacter baumannii, LAC4, read-out: measured MIC
Description: as §2

[5] = test system: antibiotic-adapted S. pneumoniae 19F (a19F); assay: Fitness outcome under antibiotic exposure (growth curve assay); format: cell-based, Streptococcus pneumoniae
Description: (§3) To test whether a gene-panel model can be trained that predicts fitness for many different conditions, a large RNA-Seq dataset was generated for the human pathogen Streptococcus pneumoniae. […] These include cell wall synthesis inhibitors (CWSI), DNA synthesis inhibitors (DSI), protein synthesis inhibitors (PSI) and RNA synthesis inhibitors ((RSI); FIG. 1A, Tables 1 & 2). Each strain was exposed to each antibiotic for 2 to 4 hours and cells were harvested for RNA-Seq at various time points. As T4 and 19F are susceptible to most antibiotics used, the transcriptional profiles in the presence of antibiotics mostly represent cases of low fitness (FIG. 1A, sensitive strain, 1xMICWT). In order to find patterns that differentiate fitness outcomes, adapted strains were generated with increased fitness in the presence of antibiotics by serial passaging wildtype T4 and 19F in the presence of increasing amounts of antibiotics. Four independent adapted populations for each strain were selected on individual antibiotics. These adapted strains could grow in the presence of antibiotic at 1.5xMIC of the wildtype strain, albeit with a small growth defect (FIGS. 6A-6E & 6F). In parallel, RNA-Seq was performed on S. pneumoniae strains D39 and T4 in a chemically defined medium, and media from which either uracil, Glycine or L-Valine was removed, which are essential for D39 but not T4. This enabled the potential identification of a common stress signature that is shared between antibiotic exposure and nutrient deprivation, and across multiple strains. Lastly, D39 was adapted to grow in the absence of each individual nutrient, after which RNA-Seq was repeated for adapted clones (Table 1 lists all 24 strains, 67 populations and 267 RNA-Seq experiments).
(§4) S. pneumoniae strain TIGR4 (T4; NC_003028.3) is a serotype 4 strain originally isolated from a patient^3,4, Taiwan-19F (19F; NC_012469.1) is a multi-drug resistant strain^5,6 and D39 (NC_008533) is a commonly used serotype 2 strain originally isolated from a patient about 90 years ago^7. Strain PG1 and PG19 were isolated from adults with pneumococcal bacteremia infection and included in the Pneumococcal Bacteremia Collection Nijmegen (PBCN)^8. All S. pneumoniae gene numbers refer to the T4 genome. Correspondence between homologous genes among S. pneumoniae strains and gene function annotations are described herewith. Escherichia coli strain AR538, Klebsiella pneumoniae strain AR497 and Salmonella enterica subsp Typhimurium strain AR635 were clinical isolates obtained from the Center of Disease Control (CDC). Staphylococcus aureus strain MN6 was kindly provided by George Sakoulas (Center of Immunity, Infection & Inflammation, UCSD School of Medicine). Unless otherwise specified, S. pneumoniae strains were cultivated in Todd Hewitt medium with 5% yeast extract (THY) with 5 μL/mL oxyrase (Oxyrase, Inc) or on sheep's blood agar plates (Northeastern Laboratories) at 37° C. with 5% CO2. A. baumannii, E. coll. K. pneumoniae, S. aureus and S. Typhimurium were cultured in Mueller Hinton broth II (Sigma) at 37° C. with 220 rpm constant shaking. Tn-Seq and RNA-Seq experiments of S. pneumoniae under nutrient-depletion and antibiotic conditions were performed in chemically defined medium (CDM)^9 and semi-defined minimal medium (SDMM)^10, respectively. RNA-Seq experiments for A. baumannii, S. Typhimurium, E. coll. K. pneumoniae, and S. aureus were performed in Mueller Hinton broth II. Single strain growth assays were performed at least three times using 96-well plates by taking OD600 measurements on a Tecan Infinite 200 PRO plate reader.
(§5) D39 was used as the parental strain in nutrient-depletion evolution experiments; T4 and 19F were used as parental strains in antibiotic evolution experiments. […] Four replicate populations were serial passaged in CDM or SDMM as controls to identify background adaptations in nutrient or antibiotic adaptation experiments, respectively. […]

[6] = test system: antibiotic-adapted S. pneumoniae T4 (aT4); assay: as above; format: cell-based, Streptococcus pneumoniae
Description: as §3, §4, §5

[7] = test system: S. pneumoniae strain Taiwan-19F (19F); assay: Determination of relative minimal inhibitory concentration (MIC); format: cell-based, Streptococcus pneumoniae; settings: Streptococcus pneumoniae, 16 h, read-out: 1x MIC for 19F
Description: as §2

[8] = test system: S. pneumoniae strain TIGR4 (T4); assay: as above; format: cell-based, Streptococcus pneumoniae; settings: Streptococcus pneumoniae, lowest concentration that abolishes bacterial growth, 16 hours, 37° C., read-out: 1x MIC for T4
Description: as §2

[9] = test system: Salmonella Typhimurium AR635; assay: Fitness outcome under ciprofloxacin (growth curve assay); format: cell-based; settings: S. Typhimurium AR635, 1 μg/mL ciprofloxacin
Description: (§6) Since the single-timepoint variant of entropy is the most practical (in terms of data collection and cost), the generalizability of entropy to previously unseen species was evaluated using this model. RNA-Seq was performed at 120 min post exposure to 1 μg/mL of CIP. […] Single-timepoint entropy was computed for the transcriptome of each of these previously unseen isolates.
as §4

[10] = test system: Klebsiella pneumoniae AR497; assay: as above; format: cell-based; settings: K. pneumoniae AR497
Description: as §6, §4

[11] = test system: S. pneumoniae serotype 23F; assay: as above; format: cell-based, Streptococcus pneumoniae; settings: S. pneumoniae 23F
Description: as §6, §4

S. pneumoniae serotype 1 = assay: as above; format: cell-based, Streptococcus pneumoniae; settings: 1 μg/mL ciprofloxacin
Description: as §6, §4

[12] = 1 μg/mL ciprofloxacin, listed as CIP
[13] = 1 μg/mL ciprofloxacin, listed as ciprofloxacin
[14] = strain-specific 1xMIC of ciprofloxacin

Question: Which results are given for `O=C(O)c1cn(C2CC2)c2cc(N3CCNCC3)c(F)cc2c1=O` [Ciprofloxacin, ciprofloxacin]?
Answer: Fitness [1]: High; Fitness [2]: Low; MIC (A. baumannii ATCC 17978 [3]): 0.04 µg/mL (≈ 0.121 µM); MIC (A. baumannii ATCC 17978 [4]): 0.07 µg/mL (≈ 0.211 µM); MIC (A. baumannii LAC-4): 8.5 µg/mL (≈ 25.7 µM); Fitness ([5]; a19F, 19F adapted to the respective antibiotic, 1xMIC and 1.5-2xMIC, growth curves): High; Survive (real survival outcome) ([5]; strain 19F, Adapted TRUE, Concentration L (low)): TRUE; Fitness ([6]; aT4, T4 adapted to the respective antibiotic, 1xMIC and 1.5-2xMIC, growth curves): High; Survive (real survival outcome) ([6]; strain T4, Adapted TRUE, Concentration L (low)): TRUE; MIC [7]: 1 µg/mL (≈ 3.02 µM); MIC [8]: 1 µg/mL (≈ 3.02 µM); Fitness [9]: Low; Fitness ([9]; listed as ciprofloxacin): low fitness; Fitness ([10]; 1 μg/mL ciprofloxacin): High; Fitness [10, 12]: insensitive; Fitness [10, 13]: high fitness; Fitness [10, 14]: Low,; Fitness ([11]; 1 μg/mL ciprofloxacin): High; Fitness [11, 12]: insensitive; Fitness [11, 13]: high fitness; Fitness [11, 14]: Low,; Fitness (S. pneumoniae serotype 1): Low; Fitness (S. pneumoniae serotype 1; listed as ciprofloxacin): low fitness
